Patent US20210137948A1, “TREATMENT OF INFECTIONS CAUSED BY NEISSERIA GONOCOCCUS USING A HALOGENATED SALICYLANILIDE” (priority 2018, published 2021)
Where two headings read alike, the source gives them in different places.

Columns and labels:
Assay in all cases: Broth microdilution MIC testing
Format in all cases: cell-based
Klebsiella pneumoniae = Klebsiella pneumoniae MMX 214/ATCC 13883, susceptible
Experimental: (§1) Broth microdilution assay: Mueller Hinton II broth (MHB II, BBL, BD, catalog no. 212322; lot no. 5257869) was used for testing most aerobes.
(§2) MIC values were determined using a broth microdilution procedure described by CLSI, see reference (1). Automated liquid handlers (Multidrop 384, Labsystems, Helsinki, Finland; Biomek 2000 and Biomek FX, Beckman Coulter, Fullerton Calif.) were used to conduct serial dilutions and liquid transfers.
(§3) The wells in Columns 2 through 12 of two standard 96-well microdilution plates (Costar 3795, Corning Inc., Corning, N.Y.) were filled with 150 μL of diluent specific to the compound tested. Three hundred microliters of each comparator and investigational drug solution (40× or 100×) was added to one well in Column 1 of the plates. The Biomek 2000 was used to complete the serial transfers through Column 11. The wells of Column 12 contained no drug and were the organism growth control wells. These panels were the “mother plates.”
(§4) Because drugs were prepared at either 40× or 100×, the “daughter plates” were loaded with 185-188 μL of the appropriate test media for the tested organism, using the Multidrop 384 or by hand. The daughter plates were prepared on the Biomek FX instrument, which transferred 2-5 μL of drug solution from each well of a mother plate to the corresponding well of each daughter plate in a single step. The wells of the daughter plates ultimately contained 185-188 μL of broth appropriate to the organism, 2-5 μL of drug solution, and 10 μL of bacterial inoculum prepared in broth.
(§5) Standardized inoculum of each organism was prepared per CLSI methods, see reference (1). The inoculum for each organism was dispensed into sterile reservoirs divided by length (Beckman Coulter), and the Biomek 2000 was used to inoculate the plates. Daughter plates were placed on the Biomek 2000 work surface in reverse orientation so that inoculation took place from low to high drug concentration. The Biomek 2000 delivered 10 μL of standardized inoculum into each well. This yielded a final cell density in the daughter plates of approximately 5×10^5 CFU/mL.
(§6) Plates were stacked 3 high, covered with a lid on the top plate, placed in plastic bags, and incubated at 35° C. for approximately 18 to 20 hr. Following incubation, the microplates were removed from the incubator and viewed from the bottom using a plate viewer. […] The MIC was read and recorded as the lowest concentration of drug that inhibited visible growth of the organism.

Escherichia coli = conditions: for MIC: Escherichia coli, read-out: Minimal Inhibitory Concentration
Experimental: as §1, §2, §3, §4, §5, §6

Pseudomonas aeruginosa = Pseudomonas aeruginosa MMX 103/ATCC 27853, susceptible, QC
Experimental: as §1, §2, §3, §4, §5, §6

Acinetobacter baumannii = Acinetobacter baumannii MMX 1630/ATCC 19606, susceptible
Experimental: as §1, §2, §3, §4, §5, §6

Enterobacter cloacae = Enterobacter cloacae MMX 6089, susceptible
Experimental: as §1, §2, §3, §4, §5, §6

[1] = tested on: Stenotrophomonas maltophila; conditions: Stenotrophomonas maltophila MMX 4746, susceptible
Experimental: as §1, §2, §3, §4, §5, §6

O=C(Nc1ccc([N+](=O)[O-])cc1Cl)c1cc(Cl)ccc1O [Niclosamide, 2′,5-dichloro-4′-nitrosalicylanilide]
> 8 µg/mL: MIC (Klebsiella pneumoniae; ATCC13883, read-out: Minimal Inhibitory Concentration) | Minimal Inhibitory Concentration (Klebsiella pneumoniae) | Minimal Inhibitory Concentration (Escherichia coli; Escherichia coli MMX 102/ATCC 25922, QC strain) | Minimal Inhibitory Concentration (Escherichia coli; Escherichia coli MMX 120, acrAB efflux pump knockout) | MIC (Escherichia coli; ATCC25922) | MIC (Escherichia coli) | MIC (Pseudomonas aeruginosa; ATCC27853, read-out: Minimal Inhibitory Concentration) | Minimal Inhibitory Concentration (Pseudomonas aeruginosa) | MIC (Acinetobacter baumannii; ATCC19606, read-out: Minimal Inhibitory Concentration) | Minimal Inhibitory Concentration (Acinetobacter baumannii) | Minimal Inhibitory Concentration (Enterobacter cloacae) | MIC (Enterobacter cloacae; read-out: Minimal Inhibitory Concentration) | Minimal Inhibitory Concentration [1] | MIC ([1]; Stenotrophomonas sp. LMG 10879, read-out: Minimal Inhibitory Concentration)
